From patent publication US20210161788A1, “Anti-Blue Light Dermal Topical Composition and Applications Thereof” (Taiwan AC Scientific Inc., priority 2019, published 2021)

Legend:
[1] = Penetration rates of UV, blue light and visual light and shading rate of blue light, UV/blue-light detector; assay type: physicochemical; details: for Penetration rate UV: 380-400 nm; for Penetration rate BL: 405-425 nm; for Penetration rate VL: 520-540 nm; for Shading rate of blue light: VL penetration minus BL penetration
Procedure: Solutions with different concentrations prepared by terephthalylidene dicamphor sulfonic acid are tested with a UV/blue-light detector (Actor-Mater Co., Ltd.) for penetration rates of ultraviolet (UV), blue light (BL) and visual light (VL). The shading rate of blue light is calculated by the formula as follows:
Shading rate of blue light (%)=penetration rate of visual light−penetration rate of blue light
where wavelength ranges of UV, blue light and visual light tested with a UV/blue-light detector (Actor-Mater Co., Ltd.) are 380-400 nm, 405-425 nm and 520-540 nm, respectively.
The 3% terephthalylidene dicamphor sulfonic acid solution (B) and the 3% rutoside solution (C) are prepared by ingredients as shown in formulas in Table 4. Referring to test modes in Embodiment 1 to Embodiment 3, the anti-blue light effects and the shading rates of blue light for solutions (B) and (C) are tested, respectively.
The synergistic effect of rutoside and terephthalylidene dicamphor sulfonic acid on anti-blue light is explored in this embodiment. Prepared by rutoside and terephthalylidene dicamphor sulfonic acid, the mixed solutions with different concentrations are tested for shading rates of blue light according to the test mode as shown in Embodiment 3.

[2] = system: Human Skin; assay: Evaluation of the effect on human skin by the Janus facial analysis system; assay type: in vivo; details: 3% solution applied on skin
Procedure: Evaluation method: A subject who has applied the 3% terephthalylidene dicamphor sulfonic acid solution on skin surfaces for seven straight days is tested by the Janus facial analysis system for status change of their skin.

- Penetration rate UV ([1]; 0.5% (W/W) solution): 3.00 ± 0.00%
- Penetration rate BL ([1]; 0.5% (W/W) solution): 87.33 ± 0.58%
- Penetration rate VL ([1]; 0.5% (W/W) solution): 99.00 ± 0.00%
- Shading rate of blue light ([1]; 0.5% (W/W) solution): 11.67 ± 0.58%
- Penetration rate UV ([1]; 1% (W/W) solution): 1.67 ± 0.58%
- Penetration rate BL ([1]; 1% (W/W) solution): 77.00 ± 1.00%
- Penetration rate VL ([1]; 1% (W/W) solution): 98.67 ± 0.58%
- Shading rate of blue light ([1]; 1% (W/W) solution): 21.67 ± 0.58%
- Penetration rate UV ([1]; 3% (W/W) solution): 0.00 ± 0.00%
- Penetration rate BL ([1]; 3% (W/W) solution): 50.00 ± 1.00%
- Penetration rate VL ([1]; 3% (W/W) solution): 97.33 ± 0.58%
- Shading rate of blue light ([1]; 3% (W/W) solution): 47.33 ± 0.58%
- Penetration rate UV ([1]; 5% (W/W) solution): 0.00 ± 0.00%
- Penetration rate BL ([1]; 5% (W/W) solution): 42.33 ± 0.58%
- Penetration rate VL ([1]; 5% (W/W) solution): 97.33 ± 0.58%
- Shading rate of blue light ([1]; 5% (W/W) solution): 55.00 ± 1.00%
- Penetration rate UV ([1]; 10% (W/W) solution): 0.00 ± 0.00%
- Penetration rate BL ([1]; 10% (W/W) solution): 26.33 ± 1.15%
- Penetration rate VL ([1]; 10% (W/W) solution): 95.00 ± 1.00%
- Shading rate of blue light ([1]; 10% (W/W) solution): 68.67 ± 0.58%
- Penetration rate UV ([1]; 20% (W/W) solution): 0.00 ± 0.00%
- Penetration rate BL ([1]; 20% (W/W) solution): 16.00 ± 1.00%
- Penetration rate VL ([1]; 20% (W/W) solution): 93.00 ± 1.00%
- Shading rate of blue light ([1]; 20% (W/W) solution): 77.00 ± 0.00%
- Average shading rate of blue light ([1]; content of anti-blue light substances in a solution 1%): 22%
- Average shading rate of blue light ([1]; content of anti-blue light substances in a solution 3%): 47%
SMILES: CC1(C)C2CCC1(CS(=O)(=O)O)C(=O)C2=Cc1ccc(C=C2C(=O)C3(CS(=O)(=O)O)CCC2C3(C)C)cc1 (stereo in doubt) [terephthalylidene dicamphor sulfonic acid]
- Reduction of the total average of fine wrinkles ([2]; after 7 straight days vs before use): 7%
- Count of melanin pigmentations at the forehead ([2]; after 7 straight days, before use 42): 25
- Count of melanin pigmentations at one side of the face ([2]; after 7 straight days, before use 49): 42
- Count of melanin pigmentations at cheeks ([2]; after 7 straight days, before use 56): 44
- Fine wrinkles under eyelids ([2]; after 7 straight days, before use 57): 54
- Total average fine wrinkles ([2]; after 7 straight days, before use 82): 75
- Crow's feet ([2]; after 7 straight days, before use 100): 88
